The target of assay [1] is NAD-dependent protein deacylase sirtuin-5, mitochondrial (Homo sapiens, UniProt Q9NXA8). The assay can be described thus: sirtuin-5 deacylation blockers, concentration series – biochemical, fluorescence imaging, cherry-pick, set 5, dose response (AID 720591).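 Further: desuccinylation of succinyl peptide AMC substrate read as fluorescence after trypsin release; potency of inhibitors that lower fluorescence and may act on trypsin instead.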
For assay [2], the target named is COUP transcription factor 2 (Homo sapiens, UniProt P24468). Nature of the assay: Luminescence-based cell-based high throughput dose response assay to identify inhibitors of COUP-TFII (NR2F2). The assay is classed as functional.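 Further: HEK293 cells transiently cotransfected with COUP-TFII expression vector and reporter; luciferase reporter luminescence driven by COUP-TFII from the pX2-168 reporter plasmid.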
Assay [3] relates to INS1. The assay can be described thus: INS-1E survival protection against cytokine death – cell-based, luminescence, retest, dose response (AID 449756).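 Further: cell death triggered by IL-1 beta plus TNF-alpha plus IFN-gamma mixture; protective hits raise ATP signal compared with cytokine alone wells.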 The assay is classed as functional. The note with it: Rattus norvegicus.
A short description of assay [4]: cells. The assay is classed as functional, cell-based. The note with it: HEK-CNG.
Assay [5] deals with T1, Galanin receptor type 3 (Homo sapiens, UniProt O60755).
T1 sequence (O60755 whole entry): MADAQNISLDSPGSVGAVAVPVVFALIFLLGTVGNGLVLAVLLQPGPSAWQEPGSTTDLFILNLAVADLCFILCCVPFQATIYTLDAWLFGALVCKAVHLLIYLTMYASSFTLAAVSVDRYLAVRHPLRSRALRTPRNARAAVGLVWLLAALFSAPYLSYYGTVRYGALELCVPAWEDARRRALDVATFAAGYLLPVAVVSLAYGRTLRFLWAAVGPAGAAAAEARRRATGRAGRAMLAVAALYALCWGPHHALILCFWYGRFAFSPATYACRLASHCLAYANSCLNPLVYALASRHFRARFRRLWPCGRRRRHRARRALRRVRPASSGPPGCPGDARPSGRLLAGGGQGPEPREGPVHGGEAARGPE
Nature of the assay: Fluorescence-based cell-based primary high throughput dose response assay to identify antagonists of the Galanin Receptor 3 (GalR3). The assay is classed as functional.

Assay [6] in a line: blockers of HIV-1 ZM109 envelope-driven cell-cell fusion – HeLa effector, CEM target cells, luciferase, cherry-pick, dose response (AID 652058).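 Further: luciferase signal from HIV-1 Env mediated cell-cell fusion of effector and target cells.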 The assay is classed as functional, cell-based.
The target of assay [7] is T2, High affinity choline transporter 1 (Homo sapiens, UniProt Q9GZV3).
T2 sequence (Q9GZV3 whole entry): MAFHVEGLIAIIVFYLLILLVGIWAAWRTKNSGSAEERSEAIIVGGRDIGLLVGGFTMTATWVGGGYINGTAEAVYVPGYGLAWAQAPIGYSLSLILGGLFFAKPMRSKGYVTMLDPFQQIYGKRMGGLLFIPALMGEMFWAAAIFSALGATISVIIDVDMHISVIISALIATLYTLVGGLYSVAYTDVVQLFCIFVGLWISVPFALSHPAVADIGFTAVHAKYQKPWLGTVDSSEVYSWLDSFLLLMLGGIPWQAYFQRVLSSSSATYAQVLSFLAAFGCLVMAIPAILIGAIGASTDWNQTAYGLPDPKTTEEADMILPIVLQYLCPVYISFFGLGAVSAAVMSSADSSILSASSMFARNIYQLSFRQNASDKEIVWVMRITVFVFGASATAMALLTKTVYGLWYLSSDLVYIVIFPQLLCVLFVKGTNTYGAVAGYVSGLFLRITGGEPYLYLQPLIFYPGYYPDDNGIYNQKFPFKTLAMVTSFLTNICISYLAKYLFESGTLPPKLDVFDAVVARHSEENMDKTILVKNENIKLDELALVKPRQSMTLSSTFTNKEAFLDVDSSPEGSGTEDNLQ
The assay can be described thus: human choline transporter blockers, potency – cell-based, 5-point CRC, membrane potential dye, dose response (AID 504840). In kind it is functional.

Assay [8] in a line: HIV-1 AD8 envelope cell-cell fusion blockers – cherry-pick, dose response (AID 652062).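 Further: luciferase signal from cell-cell fusion driven by HIV-1 clade B AD8 Env; potency is for inhibitors of fusion seen as a drop in luminescence.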 In kind it is functional, cell-based.
Assay [9] is described as follows: HEK-293T cell viability reduction – luminescence, B-cell screen hits, cytotoxicity control for BCR NF-kB inhibitor project, dose response (AID 489021).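 Further: HEK-293T cells carrying an NF-kB luciferase reporter; cells exposed to compound for about 14 hours before viability readout.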 In kind it is functional, cell-based.
The nature of assay [10]: reduction of Shn3 3'UTR-driven luciferase in osteoblasts – cell-based, Clone20 osteoblasts, firefly luciferase, cherry-picked, dose response (AID 624132).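 Further: firefly luciferase luminescence from reporter carrying the Shn3 3'UTR in osteoblasts.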 The assay is classed as functional.
The nature of assay [11]: non-specific 3'UTR reporter inhibition in Clone20-Shn3RL – cell-based, Renilla luciferase, cherry-picked, counter-screen for Shn3 inhibitor project, dose response (AID 624133). The assay is classed as functional. A general note: A counterscreen serves to expose hits that act by an unwanted route or on another target.
Assay [12] in a line: Shn3 3'UTR reporter signal decrease – cell-based, Clone20 osteoblasts, firefly luciferase, cherry-pick, set 2, Schnurri-3 inhibitor project, dose response (AID 720490).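 Further: actives lower the luminescence signal as inhibitors.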 In kind it is functional.
Assay [13] can be described thus: loss of viability in HepG2 cells – cell-based, CellTiter-Glo, cherry-picked, cytotoxicity control for Shn3 inhibitor project, dose response (AID 624134). The assay is classed as functional. A general note: ATP-based viability assays read luminescence as a measure of living cells.
Assay [14] has as its target Protein Wnt-3a (Mus musculus, UniProt P27467). The assay can be described thus: antagonism of Wnt3a pathway luciferase reporter – Wnt-LIGHT cells, luminescence, selectivity assay for Gli-SUFU antagonist project, dose response (AID 651570).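 Further: Wnt-LIGHT reporter cells stimulated with conditioned medium from Wnt3a-producing cells.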 In kind it is functional. The note with it: read-out: IC50_Mean. A general note: A reporter such as luciferase makes a cellular process visible.

Assay [15] concerns the target T3, Oxysterols receptor LXR-beta (Homo sapiens, UniProt P55055).
T3 sequence (P55055 whole entry): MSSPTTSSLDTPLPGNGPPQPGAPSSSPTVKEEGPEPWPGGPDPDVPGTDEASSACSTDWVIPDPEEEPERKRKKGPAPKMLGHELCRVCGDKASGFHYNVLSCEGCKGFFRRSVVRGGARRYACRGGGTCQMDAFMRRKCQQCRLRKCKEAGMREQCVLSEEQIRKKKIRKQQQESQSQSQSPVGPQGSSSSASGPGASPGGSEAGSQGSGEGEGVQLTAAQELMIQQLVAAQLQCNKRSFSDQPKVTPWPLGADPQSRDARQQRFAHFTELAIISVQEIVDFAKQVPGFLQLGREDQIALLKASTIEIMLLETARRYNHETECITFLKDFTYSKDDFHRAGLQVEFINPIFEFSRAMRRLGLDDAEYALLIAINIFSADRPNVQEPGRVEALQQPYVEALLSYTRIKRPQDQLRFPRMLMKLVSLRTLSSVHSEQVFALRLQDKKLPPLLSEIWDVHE
The assay can be described thus: LXR agonists, Gal4 luciferase reporter, dose response, counter-screen for ssDAF-12 agonist project, cell-based, luminescence, HEK293, S. stercoralis campaign (AID 720737). The assay is classed as functional. The note with it: read-out: IC50 (the source's name).

The target in assay [16] is T3, Oxysterols receptor LXR-beta. In kind it is functional, cell-based.
Assay [17] is described as follows: cells.
The nature of assay [18]: Luminescence-based cell-based high throughput dose response assay to identify activators of the DAF-12 from the parasite S. stercoralis (ssDAF-12). The assay is classed as functional.
Assay [19] can be described thus: cells. In kind it is functional, cell-based.
The target of assay [20] is T4, Nuclear receptor subfamily 0 group B member 1 (Homo sapiens, UniProt P51843).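 Further: HEK293T cells transfected with SF-1 and DAX-1 plus StAR promoter luciferase reporter.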
T4 sequence (P51843 whole entry): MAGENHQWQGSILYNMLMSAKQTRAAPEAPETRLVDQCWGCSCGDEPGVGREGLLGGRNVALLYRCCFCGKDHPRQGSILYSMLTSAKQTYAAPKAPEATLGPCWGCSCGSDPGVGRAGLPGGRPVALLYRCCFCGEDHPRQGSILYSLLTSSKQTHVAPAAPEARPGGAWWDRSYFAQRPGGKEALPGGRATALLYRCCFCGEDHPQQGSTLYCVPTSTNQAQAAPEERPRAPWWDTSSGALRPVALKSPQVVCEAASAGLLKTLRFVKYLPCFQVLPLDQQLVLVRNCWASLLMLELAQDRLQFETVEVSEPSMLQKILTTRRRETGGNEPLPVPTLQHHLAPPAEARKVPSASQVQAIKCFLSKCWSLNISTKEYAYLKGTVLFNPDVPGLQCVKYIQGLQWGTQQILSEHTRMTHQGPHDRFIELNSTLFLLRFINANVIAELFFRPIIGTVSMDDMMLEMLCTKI
In kind it is functional, cell-based.

Structures are written as SMILES. Activity calls are given as the source filed them.

Sequence of NAD-dependent protein deacylase sirtuin-5, mitochondrial (Q9NXA8 whole entry): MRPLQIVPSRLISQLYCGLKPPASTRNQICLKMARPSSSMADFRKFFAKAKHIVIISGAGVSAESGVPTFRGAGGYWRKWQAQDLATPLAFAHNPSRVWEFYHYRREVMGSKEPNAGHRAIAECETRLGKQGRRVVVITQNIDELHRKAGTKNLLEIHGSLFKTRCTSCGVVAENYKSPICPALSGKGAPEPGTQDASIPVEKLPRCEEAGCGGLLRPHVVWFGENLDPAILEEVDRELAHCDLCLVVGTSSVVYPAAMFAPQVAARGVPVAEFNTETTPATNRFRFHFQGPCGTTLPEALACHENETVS
Sequence of Protein Wnt-3a (P27467 whole entry): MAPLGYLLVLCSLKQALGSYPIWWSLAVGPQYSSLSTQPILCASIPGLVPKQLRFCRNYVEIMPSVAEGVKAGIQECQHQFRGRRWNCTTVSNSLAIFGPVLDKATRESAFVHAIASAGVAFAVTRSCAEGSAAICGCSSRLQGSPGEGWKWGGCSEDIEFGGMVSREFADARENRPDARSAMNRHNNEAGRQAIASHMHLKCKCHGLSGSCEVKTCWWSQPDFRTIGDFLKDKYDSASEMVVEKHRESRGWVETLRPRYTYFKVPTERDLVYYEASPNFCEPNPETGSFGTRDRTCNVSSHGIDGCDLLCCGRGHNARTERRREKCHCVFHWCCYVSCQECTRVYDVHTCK
Sequence of COUP transcription factor 2 (P24468 whole entry): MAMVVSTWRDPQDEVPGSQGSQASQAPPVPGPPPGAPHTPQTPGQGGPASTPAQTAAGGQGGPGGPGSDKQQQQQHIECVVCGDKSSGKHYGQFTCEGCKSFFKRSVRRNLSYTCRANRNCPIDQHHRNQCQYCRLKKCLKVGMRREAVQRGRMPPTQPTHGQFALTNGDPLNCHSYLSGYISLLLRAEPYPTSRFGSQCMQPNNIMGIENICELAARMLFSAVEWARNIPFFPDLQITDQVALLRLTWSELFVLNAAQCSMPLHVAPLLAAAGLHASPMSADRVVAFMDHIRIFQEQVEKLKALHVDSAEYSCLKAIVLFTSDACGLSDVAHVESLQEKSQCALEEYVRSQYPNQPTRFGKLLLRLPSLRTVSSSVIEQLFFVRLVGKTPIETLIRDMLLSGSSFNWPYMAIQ

On to `CCOc1ccc(CCNC(=O)c2cccc(S(=O)(=O)N3CCN(C(C)=O)CC3)c2)cc1OCC`, for which the AC50 in [1] was > 30 µM (inactive).

For `Cc1ccc(S(=O)(=O)N2C[C@@H]3CCCC[C@@H]3[C@@H](C)[C@H]2c2cn(Cc3ccccc3)c3ccc(F)cc23)cc1`, the AC50 in assay [1] is > 30 µM (inactive).

As to `Cc1nn(C)c(C)c1CN(C)S(=O)(=O)c1ccc2ccccc2c1`, the IC50 in assay [2] is 3.25 µM (active); in assay [5], 1.01 µM (active); in [7], 12.6 µM (active); in [9], > 80 µM (inactive). In addition, the AC50 is 1.93 µM (active) in [3], 0.626 µM (active) in assay [6] and 2.42 µM (active) in assay [8]. Moreover, the EC50 in assay [4] was > 29.9 µM (inactive).

As for `CCN(CC)S(=O)(=O)c1ccc(S(=O)(=O)Nc2c(C)nn(C)c2C)cc1`, the AC50 in [10] was 2.24 µM (active); in assay [11], 27.4 µM (active); in assay [12], 1.06 µM (active); in assay [13], 36.6 µM (active). In addition, in assay [14], the IC50 is 8.16 µM (active).

Regarding `C(=Cc1c[nH]c2ccccc12)c1nccc2ccccc12`, the EC50 in assay [15] is > 67.6 µM (inactive); in assay [16] it was > 67.4 µM (inactive); in [17] it was > 67.4 µM (inactive). Moreover, in [18], the IC50 was > 67.6 µM (inactive).

With `O=C(Nc1ccccn1)c1sc2cccc(F)c2c1Cl`, the figures for the IC50 in [19] and in assay [20] were > 67.6 µM (inactive) and > 0.834 µM (active), respectively. Besides, the EC50 in [16] and in assay [17] was > 67.6 µM (inactive) each time.

For orientation: AC50 means the midpoint of the concentration-response curve, whichever way the signal moves.
